EP4620476A1, “ANTIVIRAL COMPOSITION CONTAINING INCLUSION COMPOUNDS WITH CYCLODEXTRINS AS ACTIVITY MODULATORS AND ANTISEPTIC ACTIVES AND USES THEREOF” (Silva, Renata Moisés Iwamizu, priority 2022, dated 2024)
Where a name gives a salt, the structure may show the parent alone.

Tests used:
[1] = Cytotoxicity in Vero cells (MTT); assay type: cell-based; conditions: monkey
Procedure: (§1) The product was evaluated for its effective concentration against the virus without causing toxicity to the tested cells. The virus (HSV-1) was added to different dilutions of the product and incubated for 1 hour at 37°C. Then, the solution was diluted (1:10) and added to Vero cells (ATCC CCL-81) for incubation for 72 hours at 37°C and 5% CO2. Positive control (virus without treatment with the inclusion compounds) and negative control (cells without virus and without treatment) were used, under the same conditions, in all tests. The results were evaluated by MTT (Mosmann, 1983; Sieuwerts et al., 1995). The assays were carried out in a NB-2 laboratory (Biosafety Level 2) following Good Laboratory Practices (GLP) and in accordance with the recommendations of ANVISA (Art. 1 and Art. 3 of IN 04/13 and IN 12/16).

HSV-1 = experiment: Virucidal assay: HSV-1 incubated with product, then added to Vero cells, MTT readout; assay type: cell-based; conditions: 3 µg/mL
Procedure: as §1

[2] = cited from earlier work

With `N=C(NCCCCCCNC(=N)NC(=N)Nc1ccc(Cl)cc1)NC(=N)Nc1ccc(Cl)cc1` [digluconate salt of chlorhexidine] the CC50 at 72 h [1] was greater than 3 µg/mL and the “inactivation of HSV-1” value (HSV-1) was “unable to inactivate HSV-1”.
For `Nc1nc2c(ncn2COCCO)c(=O)[nH]1` [Acyclovir], the plasma protein binding [2] is listed as “less than 20%”.
